Assay results taken from publication PMC7250897, “UDP-glucosyltransferase regulates grain size and abiotic stress tolerance associated with metabolic flux redirection in rice” (Nature Communications, 2020).

T1: GSA1^WYJ (Oryza sativa, UniProt Q9AUV3, A349T)
T1 construct: gene Os03g0757500; full-length cDNA in pET21a (NdeI/NotI), E. coli BL21(DE3) pLysS, crude extract; WYJ allele A246, A349
T1 sequence (Q9AUV3 1-457 A349T): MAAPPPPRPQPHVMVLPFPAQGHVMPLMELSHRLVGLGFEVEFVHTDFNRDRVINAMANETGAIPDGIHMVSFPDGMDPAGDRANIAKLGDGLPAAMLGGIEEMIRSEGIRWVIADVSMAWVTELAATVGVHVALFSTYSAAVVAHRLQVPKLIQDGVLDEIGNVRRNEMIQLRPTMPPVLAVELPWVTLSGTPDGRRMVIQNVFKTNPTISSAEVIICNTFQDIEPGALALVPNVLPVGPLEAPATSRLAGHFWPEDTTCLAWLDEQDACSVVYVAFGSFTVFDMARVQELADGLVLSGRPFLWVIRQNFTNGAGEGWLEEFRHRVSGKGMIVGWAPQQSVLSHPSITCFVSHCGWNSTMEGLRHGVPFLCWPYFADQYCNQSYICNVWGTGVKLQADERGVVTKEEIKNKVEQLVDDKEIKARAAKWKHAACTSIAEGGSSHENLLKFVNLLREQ

T2: GSA1^WYJ (Oryza sativa, UniProt Q9AUV3, A246V)
T2 construct: gene Os03g0757500; full-length cDNA in pET21a (NdeI/NotI), E. coli BL21(DE3) pLysS, crude extract; WYJ allele A246, A349
T2 sequence (Q9AUV3 1-457 A246V): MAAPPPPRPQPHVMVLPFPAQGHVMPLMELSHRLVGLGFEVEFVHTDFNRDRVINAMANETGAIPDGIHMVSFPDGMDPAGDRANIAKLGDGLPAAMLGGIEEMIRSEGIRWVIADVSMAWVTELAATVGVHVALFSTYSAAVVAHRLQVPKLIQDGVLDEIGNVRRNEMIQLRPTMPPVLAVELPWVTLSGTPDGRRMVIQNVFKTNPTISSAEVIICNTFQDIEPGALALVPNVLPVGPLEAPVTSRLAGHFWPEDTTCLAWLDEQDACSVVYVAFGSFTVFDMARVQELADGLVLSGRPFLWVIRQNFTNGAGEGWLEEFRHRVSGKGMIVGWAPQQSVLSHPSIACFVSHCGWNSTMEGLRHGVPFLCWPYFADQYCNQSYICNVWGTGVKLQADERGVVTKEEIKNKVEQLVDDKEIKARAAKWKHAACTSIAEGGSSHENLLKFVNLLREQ


How the values were obtained:
GSA1^WYJ [1] = molecular target: T1, GSA1^WYJ; assay: HPLC glucosyltransferase assay, product peak area; settings: 250 μM acceptor, 1.5 mM UDP-glucose, 10 mM MgCl2, glycine-NaOH pH 8.6, 37 °C, 2 h
GSA1^WYJ [2] = molecular target: T2, GSA1^WYJ; assay: HPLC glucosyltransferase assay, product peak area; settings: 250 μM acceptor, 1.5 mM UDP-glucose, 10 mM MgCl2, glycine-NaOH pH 8.6, 37 °C, 2 h
[3] = substrate: O=c1ccn([C@@H]2O[C@H](CO[P@@](=O)(O)O[P@@](=O)(O)O[C@H]3O[C@H](CO)[C@@H](O)[C@H](O)[C@H]3O)[C@@H](O)[C@H]2O)c(=O)[nH]1; assay: HPLC glucosyltransferase assay, kinetics; type: biochemical, Oryza sativa; settings: sugar donor, kaempferol as acceptor, 10 mM MgCl2, glycine-NaOH pH 8.6, 37 °C
[4] = substrate: O=c1c(O)c(-c2ccc(O)cc2)oc2cc(O)cc(O)c12; assay: cells, lysate or membranes; settings: sugar acceptor, UDP-glucose as donor, assay buffer 10 mM MgCl2, glycine-NaOH pH 8.6, 37 °C

| Molecule | HPLC glucosyltransferase assay, product peak area (GSA1^WYJ [1]) | HPLC glucosyltransferase assay, product peak area (GSA1^WYJ [2]) | Km [3] [µM] | Km [4] [µM] |
| --- | --- | --- | --- | --- |
| COc1cc(/C=C/CO)cc(OC)c1O [sinapyl alcohol] | the glucosyltransferase activity of GSA1^A349T was comparable to that of GSA1^CG14 | the glucosyltransferase activity of GSA1^A246V toward kaempferol and sinapyl alcohol was comparable |  |  |
| O=c1c(O)c(-c2ccc(O)cc2)oc2cc(O)cc(O)c12 [kaempferol] | the glucosyltransferase activity of GSA1^A349T was comparable to that of GSA1^CG14 | the glucosyltransferase activity of GSA1^A246V toward kaempferol and sinapyl alcohol was comparable |  |  |
| GSA1^WYJ (Oryza sativa Japonica Group) (protein, full-length cDNA in pET21a (NdeI/NotI), E. coli BL21(DE3) pLysS, crude extract; WYJ allele A246, A349) MAAPPPPRPQPHVMVLPFPAQGHVMPLMELSHRLVGLGFEVEFVHTDFNRDRVINAMANETGAIPDGIHMVSFPDGMDPAGDRANIAKLGDGLPAAMLGGIEEMIRSEGIRWVIADVSMAWVTELAATVGVHVALFSTYSAAVVAHRLQVPKLIQDGVLDEIGNVRRNEMIQLRPTMPPVLAVELPWVTLSGTPDGRRMVIQNVFKTNPTISSAEVIICNTFQDIEPGALALVPNVLPVGPLEAPATSRLAGHFWPEDTTCLAWLDEQDACSVVYVAFGSFTVFDMARVQELADGLVLSGRPFLWVIRQNFTNGAGEGWLEEFRHRVSGKGMIVGWAPQQSVLSHPSIACFVSHCGWNSTMEGLRHGVPFLCWPYFADQYCNQSYICNVWGTGVKLQADERGVVTKEEIKNKVEQLVDDKEIKARAAKWKHAACTSIAEGGSSHENLLKFVNLLREQ |  |  | 51.06 ± 7.814 | 25.54 ± 5.43 |
